According to patent publication US7186863B2, “Sertraline compositions” (TransForm Pharmaceuticals, Inc., priority 2003, dated 2007):
Where a name gives a salt, the structure may show the parent alone.

Assay: Solubility of sertraline salt forms
Details: medium not given; aqueous solubility

Row | Compound | Solubility [µg/mL]
1 | CN[C@H]1CC[C@@H](c2ccc(Cl)c(Cl)c2)c2ccccc21 [Sertraline lactate Form A, sertraline lactate] | 1900
2 | CN[C@H]1CC[C@@H](c2ccc(Cl)c(Cl)c2)c2ccccc21 [sertraline HBr salt, sertraline HBr] | 600
3 | sertraline besylate [Sertraline besylate salt] | 300
4 | sertraline mesylate [Sertraline mesylate Form C] | 4200
